Laboratory results as given in patent US20090062294A1, “HETEROARYL-SUBSTITUTED UREA MODULATORS OF FATTY ACID AMIDE HYDROLASE” (priority 2007, published 2009).

Columns and labels:
[1] = tested on: mechanical (tactile) allodynia in the left hind paw; test: Assay Method 3: Rat Mild Thermal Injury Model (MTI), mechanical allodynia; assay type: in vivo, Sprague-Dawley rats; settings: 10 mg/Kg p.o.; 0.5 h after administration; mean +/- S.E.M.
From the text: Assay Method 3—Rat Mild Thermal Injury Model (MTI)
Pathogen-free, male albino Sprague-Dawley rats were purchased from Harlan Industries (San Diego, Calif.) and maintained on a 12-h light/dark cycle (lights on at 9:00 AM and off at 9:00 PM) in a climate-controlled room. Food and water were available ad libitum up to the time of the testing.
Under isoflurane/oxygen anesthesia, a first-degree burn injury (erythema without blistering) was produced as follows: the plantar surface of the rat's left hind paw was placed on water-dampened 56° C. hotplate for 20 seconds and steady contact was maintained by applying an 84 g weight to the dorsum (after Nozaki-Taguchi & Yaksh, Neurosci. Lett. 1998, 254, 25-28).
Mild thermal injury results in mechanical allodynia in the left hind paw. Mechanical (tactile) allodynia was assessed by determining the median threshold at which the affected paw was withdrawn from graded stimuli (von Frey filaments ranging from 0.41 to 15.8 g) applied perpendicularly with sufficient force to bend slightly and held for 2-3 seconds against the proximal half of the third and fourth toe surfaces through wire-mesh observation cages. Paw flinching during or immediately following the removal of the stimulus was considered a positive response. A paw withdrawal threshold (PWT) was determined by sequentially increasing and decreasing the stimulus strength and analyzing withdrawal data using an adaptation of the Dixon up-down method, as described (Chaplan et al., J. Neurosci. 1994, 53, 55-63). Rats were included in the study only if their baseline PWT was 3.1623 g or lower (4.5 logarithmically).
Rats were tested for pre-injury thresholds prior to mild thermal injury and again for baseline thresholds after development of mechanical allodynia. Immediately after baseline measurement, test compound or vehicle was administered orally and the measurement was repeated at 0.5 h after administration. The tactile thresholds (log value) were converted to percent of a maximum possible effect ( %MPE): % MPE=[Threshold(t)−Threshold(baseline)]*100/[Threshold(pre)−Threshold(baseline)], where t=post-treatment time. Data were expressed as mean±standard error of the mean (S.E.M.). Statistical analysis was performed using two-way ANOVA with repeated measures with a significance level of p<0.05.
Results for compounds tested in this assay are presented in Table 2, as an average of results obtained. Compounds were tested in free base, hydrochloride salt, and/or trifluoroacetic acid salt forms.

[2] = molecular target: T1, rat FAAH (Rattus norvegicus, UniProt P97612); test: Assay Method 2: FAAH assay, 3H-anandamide hydrolysis in homogenate of SK-N-MC cells transfected with rat FAAH; assay type: biochemical; settings: average of results, > = solubility limit or highest concentration tested
T1 sequence (P97612 1-579): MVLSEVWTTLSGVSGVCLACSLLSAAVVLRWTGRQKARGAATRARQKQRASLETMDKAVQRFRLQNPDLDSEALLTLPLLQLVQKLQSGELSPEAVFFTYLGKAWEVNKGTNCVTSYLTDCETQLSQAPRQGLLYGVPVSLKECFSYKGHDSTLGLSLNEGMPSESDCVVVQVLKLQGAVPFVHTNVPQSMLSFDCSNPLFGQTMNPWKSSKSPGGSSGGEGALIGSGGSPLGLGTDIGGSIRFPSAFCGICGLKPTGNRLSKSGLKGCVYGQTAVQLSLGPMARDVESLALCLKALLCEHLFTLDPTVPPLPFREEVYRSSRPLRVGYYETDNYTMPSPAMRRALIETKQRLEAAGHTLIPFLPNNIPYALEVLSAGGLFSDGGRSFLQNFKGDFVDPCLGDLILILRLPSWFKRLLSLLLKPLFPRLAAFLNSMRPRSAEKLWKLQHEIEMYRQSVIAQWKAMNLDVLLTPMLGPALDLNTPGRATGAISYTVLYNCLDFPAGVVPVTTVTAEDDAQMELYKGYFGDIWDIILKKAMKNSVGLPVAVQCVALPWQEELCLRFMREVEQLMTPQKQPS
Outline: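 Homogenate of SK-N-MC cells stably transfected with rat FAAH cDNA (G418-selected clones) in pH 9 Tris/EDTA/glycerol/Triton buffer. Incubated with compound and 80 nM final [3H]-anandamide for 1 h at rt. Released [3H]-ethanolamine separated from substrate on activated charcoal filters and counted by scintillation.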

Structure (SMILES)	% MPE [1]	IC50 [2]
O=C(Nc1noc2ccccc12)N1CCN(Cc2cccc(Oc3ccc(C(F)(F)F)cc3)c2)CC1 [Example 109, N-1,2-Benzisoxazol-3-yl-4-{3-[4-(trifluoromethyl)phenoxy]benzyl}-piperazine-1-carboxamide]	0%	4 nM
O=C(Nc1noc2cc(F)ccc12)N1CCN(Cc2cccc(Oc3ccc(Cl)cc3)c2)CC1 [Example 245, 4-[3-(4-Chloro-phenoxy)-benzyl]-piperazine-1-carboxylic acid (6-fluoro-benzo[d]isoxazol-3-yl)-amide]	36 +/− 10%	15 nM
